# How the values were obtained:
# SiR-tag [1] = assay: Fluorescence emission increase (FI/FI0) of SiR upon binding to SiR-tag; type: biochemical; conditions: 50 nM dye, with vs without 20 μM protein
# Method: The thermal stability of Rho-tag variants was assessed using nano differential scanning fluorimetry (nanoDSF) on a Prometheus NT48 (NanoTemper Technologies). Protein samples (100 µM in activity buffer) were subjected to a thermal gradient from 20° C to 95° C at 1 °C / min.
# The intrinsic fluorescence ratio (350 / 330 nm) of tryptophan / tyrosine residues was monitored, and the melting temperature (TM) was determined as the inflection point of this ratio curve. Each sample was analyzed in technical duplicate (N=2), and results are reported as mean ± standard […]
# Fluorescence emission spectra
# To evaluate fluorescence turn-on or quenching (F I/FI0), rhodamine dyes (2 – 50 nM) were incubated with or without excess Rho-tag (20 μM) in activity buffer containing 0.5% BSA (w/v).
# Measurements were performed in black 384-well plates (Greiner) using the Spark20M microplate reader (Tecan) in technical replicates.
# FI/FI0 was defined as the ratio of fluorescence intensity with protein to that without at the emission […]
# recorded on the Spark20M microplate reader (Tecan). Following baseline correction, the absorbance was plotted against the dye concentration and the data were fitted linearly. […]
# (§1) coefficients were calculated via the Lambert-Beer law (Equation 1).
# Absolute quantum yields were determined at room temperature using a Hamamatsu Quantaurus-QY spectrometer (C11347 model). […]
# SiR-tag [2] = molecular target: T1, SiR-tag; assay: Fluorescence intensity titration of 20 nM SiR with serial protein dilutions, 50 mM HEPES, 50 mM NaCl, pH 7.3 with BSA, 25 °C, 4 independent measurements.; type: binding; conditions: read-out: K D (SiR), SiR-tag; SD, n = 4
# T1 construct: 2 + PROSS8 background combined with P57M/F58Y/R60L and G63N/F64K/D65N/M66H; His10-TEV
# Description: 4 Bioluminescent Rho-tag and far-red SiR-tag. A) Schematic representation of direct excitation (left) or bioluminescence (BRET, right) of Rho-tag/TMR. B) AlphaFold2 (AF2) model of RhoLuc (N-Rho-tag^1‑64-GSG-cpNLuc^67/68-GS-Rho-tag^67‑158-C). cpNLuc^67/68 was inserted into the 64/67 site of Rho-tag. Tertiary structures are represented as colored cartoons and surface. The TMR ligand presented as yellow sticks. 3-Methoxyfurimazine (3MF) was modeled into the structure by aligning a crystal structure of NLuc (PDB-ID7SNT) to the AF model and is represented as blue sticks. pLDDT: 93.88. C) Bioluminescence profile of RhoLuc (dark blue, insertion), NLuc-Rho-tag (light blue, terminal fusion), or NLuc (gray). […] The fluorescence emission spectra were recorded upon the addition of Nano-Glo substrate (Promega 1:1000). BRET ratio (in brackets) is given as I 593/I 459. […] The fluorescence emission spectrum of 50 nM dye was recorded in the presence and absence of 20 μM protein. […]
# SGCAA medium was used for induction and cells were grown at 30 °C, 250 rpm for 20 h. […] Samples were filtered through 5 mL round-bottom tubes with cell strainer caps (Falcon) and analyzed directly by FACS. […]
# PMT voltages were set based on negative controls (no protein expression). Gates were applied for FSC, SSC, and fluorescence; signals >10³ (bilirubin or rhodamine dyes) were considered positive, background ≤10². […]
# [3] = Spectral properties: absolute quantum yield, extinction coefficient, brightness; type: physicochemical
# Method: Serially fluorophore dilutions (0 – 3 μM) were prepared in activity buffer in presence or absence […]
# Measurements were performed in 200 μL volumes in clear-bottom non-binding […]
# recorded on the Spark20M microplate reader (Tecan). Following baseline correction, the absorbance was plotted against the dye concentration and the data were fitted linearly. Path […]
# as §1
# Absolute quantum yields were determined at room temperature using a Hamamatsu Quantaurus-QY spectrometer (C11347 model). Rhodamine dyes (1 μM) were tested with and without excess […]
# Samples were prepared in 800 μL glass vials
# Quantum yield represent as mean ± standard deviation from three technical replicates. The brightness was thereafter calculated using Equation 5. […]
# Rho-tag = molecular target: T2, Rho-tag (Chlorobaculum tepidum, UniProt Q8KFZ1, A66M/D121K/D126E/E36V/E70D/F125Y/F62Y/G107D/G67E/H40T/K51V/M64F/N138A/Q25R/S152V/S33N/S65D/V17Q/V87I); assay: Fluorescence intensity titration of SiR with serial Rho-tag dilutions, 50 mM HEPES, 50 mM NaCl, pH 7.3 with BSA, 25 °C.; type: binding; conditions: SD, n = 3
# T2 construct: gene CT0179; His10-TEV, recombinant from E. coli
# T2 sequence (Q8KFZ1 entry or part of it with the stated changes): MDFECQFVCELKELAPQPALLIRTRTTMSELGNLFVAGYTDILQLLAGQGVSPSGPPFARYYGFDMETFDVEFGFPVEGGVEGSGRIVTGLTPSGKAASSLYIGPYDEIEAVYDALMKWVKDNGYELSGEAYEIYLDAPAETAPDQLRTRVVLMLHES
# Method: electroporation buffer, aliquoted (12 x 50 µL) on ice, and used immediately for electroporation with 1–5 µg DNA precipitated DNA. Cells were transferred to pre-chilled 0.2 cm gap electroporation cuvettes (Bio-Rad), and electroporated using a Gene Pulser Xcell (0.54 kV, 25 µF, infinite resistance, exponential decay). Cells were recovered in 2 mL YPDS at 30 °C, shaking for 1 h and afterwards expanded in 100 mL SDCAA at 30 °C for 2 days.
# YSD protein expression, staining and sorting
# regions were amplified via KOD PCR reaction using primers containing unique barcodes (NGS adaptor ligation oligos, Eurofins Genomics) analyzed by NGS sequencing (Illumina technology, Eurofins Genomics). The NGS results were analyzed using a custom-build pipeline as described previously. […] Alternatively, plasmid DNA was transformation into E.cloni 10G and single colonies were analyzed by Sanger sequencing (Eurofins). […]
# and 1 (fully bound dye). The dissociation constants KD were determined by fitting a single-site […]
# [4] = with 20 µM Rho-tag (TMR, JF549) or SiR-tag (SiR, JF646)
smiles,measurement,setting,value
"CN(C)c1ccc2c(c1)[Si](C)(C)c1cc(N(C)C)ccc1C21OC(=O)c2ccccc21 [SiR, silicon rhodamine]",Fluorescence increase FI/FI0 upon binding to SiR-tag,SiR-tag [1],13 fold
same,Kd,SiR-tag [2],0.048 µM
same,Absolute quantum yield Φ,[3]; HaloTag7-bound,0.546 ± 0.018
same,Brightness ε × Φ,[3]; HaloTag7-bound,068 ± 1 M-1cm-1 × 103
same,Extinction coefficient ε,[3]; HaloTag7-bound,125 ± 15 M-1cm-1 × 103
same,Brightness ε × Φ,[3]; buffer,067 ± 2 M-1cm-1 × 103
same,Extinction coefficient ε,[3]; buffer,120 ± 22 M-1cm-1 × 103
same,Absolute quantum yield Φ,[3]; buffer (unbound dye),0.562 ± 0.003
same,Absolute quantum yield Φ,[3]; [4],0.649 ± 0.012
same,Brightness ε × Φ,[3]; [4],105 ± 1 M-1cm-1 × 103
same,Extinction coefficient ε,[3]; [4],162 ± 30 M-1cm-1 × 103
same,Kd,Rho-tag,6.5 µM

# — article PMC12814168, “Fast, Bright, and Reversible Fluorescent Labeling of Rhodamine-Binding Proteins” (Journal of the American Chemical Society, 2025)
